Patent publication US10745392B2, “Benzenesulfonamide compounds and their use as therapeutic agents” (Xenon Pharmaceuticals Inc., priority 2018, dated 2020)
Where two headings read alike, the source gives them in different places.

Key:
NaV1.5 [1] = target: T1, NaV1.5 (Homo sapiens (Human), UniProt Q14524); assay: Sodium Influx Assay (Flux) NaV1.5
NaV1.6 = NaV1.6 (Homo sapiens (Human), UniProt Q9UQD0); assay: Sodium Influx Assay (Flux) NaV1.6; type: cell-based; settings: Trex HEK293 cells, ANG2 dye, inhibition of sodium ion influx
NaV1.1 = NaV1.1 (Homo sapiens (Human), UniProt P35498); assay: Sodium Influx Assay (Flux) NaV1.1; type: cell-based; settings: Trex HEK293 cells, ANG2 dye, inhibition of sodium ion influx
NaV1.5 [2] = target: T1, NaV1.5
[3] = read-out: Flux NaV1.5 IC50, Trex HEK293 cells, ANG2 dye, inhibition of sodium ion influx

T1 sequence (Q14524 other isoform, or with tags, fused parts or gaps): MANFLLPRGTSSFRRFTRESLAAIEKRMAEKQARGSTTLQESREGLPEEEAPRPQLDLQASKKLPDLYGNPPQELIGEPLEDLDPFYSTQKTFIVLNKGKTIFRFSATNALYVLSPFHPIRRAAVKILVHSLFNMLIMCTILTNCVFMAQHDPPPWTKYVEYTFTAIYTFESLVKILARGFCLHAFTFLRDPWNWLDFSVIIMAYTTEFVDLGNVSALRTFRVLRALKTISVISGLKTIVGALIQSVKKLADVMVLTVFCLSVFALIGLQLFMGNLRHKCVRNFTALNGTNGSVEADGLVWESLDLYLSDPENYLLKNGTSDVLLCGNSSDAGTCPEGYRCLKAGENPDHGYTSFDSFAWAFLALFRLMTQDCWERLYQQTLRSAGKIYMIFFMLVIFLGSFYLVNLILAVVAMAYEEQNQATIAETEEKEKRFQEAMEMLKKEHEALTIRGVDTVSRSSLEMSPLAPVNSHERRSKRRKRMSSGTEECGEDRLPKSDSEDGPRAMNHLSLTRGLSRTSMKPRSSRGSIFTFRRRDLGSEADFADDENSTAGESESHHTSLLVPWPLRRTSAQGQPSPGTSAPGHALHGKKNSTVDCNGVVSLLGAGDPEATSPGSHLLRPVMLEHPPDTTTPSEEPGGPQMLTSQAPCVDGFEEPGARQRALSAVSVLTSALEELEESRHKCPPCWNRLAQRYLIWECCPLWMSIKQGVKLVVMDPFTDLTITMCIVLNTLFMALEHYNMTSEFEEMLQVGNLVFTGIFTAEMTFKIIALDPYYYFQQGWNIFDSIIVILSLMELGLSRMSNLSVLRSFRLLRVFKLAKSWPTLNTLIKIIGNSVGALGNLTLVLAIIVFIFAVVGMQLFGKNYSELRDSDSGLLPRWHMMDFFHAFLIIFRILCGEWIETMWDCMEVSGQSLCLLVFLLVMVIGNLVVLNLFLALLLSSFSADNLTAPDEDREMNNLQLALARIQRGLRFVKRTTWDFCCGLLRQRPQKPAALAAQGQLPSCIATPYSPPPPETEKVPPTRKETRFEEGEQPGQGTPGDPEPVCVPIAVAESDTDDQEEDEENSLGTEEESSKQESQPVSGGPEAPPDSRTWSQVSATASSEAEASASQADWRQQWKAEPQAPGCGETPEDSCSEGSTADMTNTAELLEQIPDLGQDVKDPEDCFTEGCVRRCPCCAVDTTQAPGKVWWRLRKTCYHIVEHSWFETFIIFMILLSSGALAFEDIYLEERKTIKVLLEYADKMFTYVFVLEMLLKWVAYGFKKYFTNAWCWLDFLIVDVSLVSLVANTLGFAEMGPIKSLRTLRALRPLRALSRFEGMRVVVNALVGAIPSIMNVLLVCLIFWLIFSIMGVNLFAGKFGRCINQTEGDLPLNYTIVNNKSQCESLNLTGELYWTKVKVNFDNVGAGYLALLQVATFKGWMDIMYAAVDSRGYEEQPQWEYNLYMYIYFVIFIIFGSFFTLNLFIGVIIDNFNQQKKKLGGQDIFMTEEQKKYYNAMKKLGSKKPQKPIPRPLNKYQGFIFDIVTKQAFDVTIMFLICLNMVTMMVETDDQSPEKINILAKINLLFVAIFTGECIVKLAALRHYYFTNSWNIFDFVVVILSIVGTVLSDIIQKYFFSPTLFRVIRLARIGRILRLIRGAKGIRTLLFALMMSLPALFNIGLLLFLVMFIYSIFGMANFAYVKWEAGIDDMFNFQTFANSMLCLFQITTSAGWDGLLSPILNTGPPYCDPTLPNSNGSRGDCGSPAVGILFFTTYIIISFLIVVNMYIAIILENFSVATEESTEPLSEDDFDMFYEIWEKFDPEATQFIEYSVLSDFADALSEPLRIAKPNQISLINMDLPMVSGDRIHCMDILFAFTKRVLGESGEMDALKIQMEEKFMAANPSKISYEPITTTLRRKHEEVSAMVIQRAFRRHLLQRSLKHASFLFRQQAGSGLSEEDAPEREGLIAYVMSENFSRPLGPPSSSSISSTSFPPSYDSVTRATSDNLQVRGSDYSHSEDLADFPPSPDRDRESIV

| SMILES | IC50 (NaV1.5 [1]) | IC50 (NaV1.6) | IC50 (NaV1.1) | IC50 (NaV1.5 [2]) | IC50 (NaV1.5 [1]; [3]) |
| --- | --- | --- | --- | --- | --- |
| C[C@@H](c1c(F)ccc(F)c1CNc1cc(F)c(S(=O)(=O)Nc2cscn2)c(F)c1)N1C2CCC1CC2 (single isomer, unassigned) [Example 15a] | > 30 µM | 0.53 µM | > 30 µM |  |  |
| C[C@H](c1c(F)ccc(F)c1CNc1cc(F)c(S(=O)(=O)Nc2cscn2)c(F)c1)N1C2CCC1CC2 (single isomer, unassigned) [Example 15b] | > 30 µM | 0.821 µM | > 30 µM |  |  |
| O=S(=O)(Nc1ccsn1)c1c(F)cc(NCc2c(F)cccc2CN2C3CCC2CC3)cc1F [Example 1, 4-((2-((7-azabicyclo[2.2.1]heptan-7-yl)methyl)-6-fluorobenzyl)amino)-2,6-difluoro-N-(isothiazol-3-yl)benzenesulfonamide] |  | 0.015 µM | 9.6 µM | > 30 µM |  |
| COc1ccc(F)c(CNc2cc(F)c(S(=O)(=O)Nc3cscn3)c(F)c2)c1CN(C)C(C)C [Example 2, 2,6-difluoro-4-((6-fluoro-2-((isopropyl(methyl)amino)methyl)-3-methoxybenzyl)amino)-N-(thiazol-4-yl)benzenesulfonamide] |  | 0.027 µM | 27.5 µM |  | 28.3 µM |
| O=S(=O)(Nc1cscn1)c1ccc(NCc2c(F)cccc2CN2C3CCC2CC3)c(F)c1F [Example 3, 4-((2-((7-azabicyclo[2.2.1]heptan-7-yl)methyl)-6-fluorobenzyl)amino)-2,3-difluoro-N-(thiazol-4-yl)benzenesulfonamide] |  | 0.142 µM | > 30 µM | > 30 µM |  |
| Cc1c(NCc2c(F)cccc2CN2C3CCC2CC3)cc(F)c(S(=O)(=O)Nc2ccon2)c1F [Example 4, 4-((2-((7-azabicyclo[2.2.1]heptan-7-yl)methyl)-6-fluorobenzyl)amino)-2,6-difluoro-N-(isoxazol-3-yl)-3-methylbenzenesulfonamide] |  | 0.047 µM | 17 µM | > 30 µM |  |
| Cc1c(NCc2c(F)cccc2CN2C3CCC2CC3)ccc(S(=O)(=O)Nc2ccon2)c1F [Example 5, 4-((2-((7-azabicyclo[2.2.1]heptan-7-yl)methyl)-6-fluorobenzyl)amino)-2-fluoro-N-(isoxazol-3-yl)-3-methylbenzenesulfonamide 2,2,2-trifluoroacetate] |  | 0.617 µM | > 30 µM | > 30 µM |  |
| O=S(=O)(Nc1cscn1)c1ccc(NCc2c(F)cccc2CN2C3CCC2CC3)c(Cl)c1F [Example 6, 4-((2-((7-azabicyclo[2.2.1]heptan-7-yl)methyl)-6-fluorobenzyl)amino)-3-chloro-2-fluoro-N-(thiazol-4-yl)benzenesulfonamide 2,2,2-trifluoroacetate] |  | 0.095 µM | 5.23 µM | 15.3 µM |  |
| Cc1c(NCc2c(F)cccc2CN2C3CCC2CC3)ccc(S(=O)(=O)Nc2cscn2)c1F [Example 7, 4-((2-((7-azabicyclo[2.2.1]heptan-7-yl)methyl)-6-fluorobenzyl)amino)-2-fluoro-3-methyl-N-(thiazol-4-yl)benzenesulfonamide 2,2,2-trifluoroacetate] |  | 0.181 µM | 7.44 µM | 21.3 µM |  |
| CC(C)Oc1ccc(F)c(CNc2cc(F)c(S(=O)(=O)Nc3cscn3)c(F)c2)c1CN(C)C(C)C [Example 8, 2,6-difluoro-4-((6-fluoro-3-isopropoxy-2-((isopropyl(methyl)amino)methyl)benzyl)amino)-N-(thiazol-4-yl)benzenesulfonamide] |  | 0.026 µM | 28 µM |  | 11.1 µM |
| O=S(=O)(Nc1cscn1)c1c(F)cc(NCc2c(F)cccc2CN2C3CCC2CC3)cc1F [Example 9, 4-((2-((7-azabicyclo[2.2.1]heptan-7-yl)methyl)-6-fluorobenzyl)amino)-2,6-difluoro-N-(thiazol-4-yl)benzenesulfonamide 2,2,2-trifluoroacetate] |  | 0.026 µM | 7.84 µM | 20.4 µM |  |
| O=S(=O)(Nc1cscn1)c1c(F)cc(NCc2c(F)ccc(F)c2CN2C3CCC2CC3)cc1F [Example 10, 4-((2-((7-azabicyclo[2.2.1]heptan-7-yl)methyl)-3,6-difluorobenzyl)amino)-2,6-difluoro-N-(thiazol-4-yl)benzenesulfonamide] |  | 0.028 µM | 7.93 µM | 25.4 µM |  |
| COc1ccc(F)c(CNc2cc(F)c(S(=O)(=O)Nc3cscn3)c(F)c2)c1CN1C2CCC1CC2 [Example 11, 4-((2-((7-azabicyclo[2.2.1]heptan-7-yl)methyl)-6-fluoro-3-methoxybenzyl)amino)-2,6-difluoro-N-(thiazol-4-yl)benzenesulfonamide 2,2,2-trifluoroacetate] |  | 0.002 µM | 5.91 µM | 27.5 µM |  |
| COc1ccc(F)c(CNc2ccc(S(=O)(=O)Nc3cscn3)c(F)c2F)c1CN1C2CCC1CC2 [Example 12, 4-((2-((7-azabicyclo[2.2.1]heptan-7-yl)methyl)-6-fluoro-3-methoxybenzyl)amino)-2,3-difluoro-N-(thiazol-4-yl)benzenesulfonamide 2,2,2-trifluoroacetate] |  | 0.054 µM | > 30 µM | > 30 µM |  |
| O=S(=O)(Nc1ccsn1)c1ccc(NCc2c(F)cccc2CN2C3CCC2CC3)c(F)c1F [Example 13, 4-((2-((7-azabicyclo[2.2.1]heptan-7-yl)methyl)-6-fluorobenzyl)amino)-2,3-difluoro-N-(isothiazol-3-yl)benzenesulfonamide 2,2,2-trifluoroacetate] |  | 0.27 µM | 23.7 µM | > 30 µM |  |
| CC(c1c(F)ccc(F)c1CNc1cc(F)c(S(=O)(=O)Nc2cscn2)c(F)c1)N1C2CCC1CC2 (stereo not drawn) [Example 14, 4-((2-(1-(7-azabicyclo[2.2.1]heptan-7-yl)ethyl)-3,6-difluorobenzyl)amino)-2,6-difluoro-N-(thiazol-4-yl)benzenesulfonamide 2,2,2-trifluoroacetate] |  | 0.653 µM | > 30 µM | 12.8 µM |  |
| COc1ccc(F)c(CNc2ccc(S(=O)(=O)Nc3cscn3)c(F)c2F)c1CN(C)C(C)C [Example 16, 2,3-difluoro-4-((6-fluoro-2-((isopropyl(methyl)amino)methyl)-3-methoxybenzyl)amino)-N-(thiazol-4-yl)benzenesulfonamide] |  | 0.031 µM | > 30 µM |  | 9.46 µM |
| COc1ccc(F)c(CNc2cc(F)c(S(=O)(=O)Nc3cscn3)cc2Cl)c1CN(C)C(C)C [Example 17, 5-chloro-2-fluoro-4-((6-fluoro-2-((isopropyl(methyl)amino)methyl)-3-methoxybenzyl)amino)-N-(thiazol-4-yl)benzenesulfonamide 2,2,2-trifluoroacetate] |  | 0.012 µM | > 30 µM |  | 16.3 µM |
| COc1ccc(F)c(CNc2cc(F)c(S(=O)(=O)Nc3cscn3)cc2C)c1CN(C)C(C)C [Example 18, 2-fluoro-4-((6-fluoro-2-((isopropyl(methyl)amino)methyl)-3-methoxybenzyl)amino)-5-methyl-N-(thiazol-4-yl)benzenesulfonamide 2,2,2-trifluoroacetate] |  | 0.016 µM | > 30 µM |  | 11.8 µM |
